From patent US20200216441A1, “PESTICIDALLY ACTIVE HETEROCYCLIC DERIVATIVES WITH SULFUR CONTAINING SUBSTITUENTS” (SYNGENTA PARTICIPATIONS AG, priority 2017, published 2020)

What was measured:
[1] = tested on: Plutella xylostella (Diamond Back Moth); experiment: whole plant or invertebrate; format: in vivo; conditions: 120 h, application rate of 200 ppm, L2 larvae on treated artificial diet, 5 days after infestation, read-out: effect in at least one of the two categories (mortality or growth inhibition)
[2] = tested on: Myzus persicae (Green Peach Aphid); experiment: whole plant or invertebrate; conditions: foliar, 144 h
[3] = tested on: Myzus persicae (Green Peach Aphid); experiment: whole plant or invertebrate; format: in vivo; conditions: 144 h, test rate of 24 ppm, systemic, roots of infested pea seedlings in test solution, 6 days
[4] = tested on: Spodoptera littoralis (Egyptian Cotton Leaf Worm); experiment: whole plant or invertebrate; conditions: in Gossypium barbadense, foliar, 72 h, read-out: control (mortality, anti-feeding effect, growth inhibition)
[5] = tested on: Diabrotica Balteata (Corn Root Worm); experiment: Diabrotica balteata (Corn Root Worm); conditions: in Zea mays, 96 h, read-out: effect in at least one of the two categories (mortality or growth inhibition)
[6] = tested on: Euschistus heros (Neotropical Brown Stink Bug); experiment: whole plant or invertebrate; format: in vivo; conditions: 120 h, application rate of 200 ppm, N2 nymphs on sprayed soybean leaves, 5 days after infestation, read-out: effect in at least one of the two categories (mortality or growth inhibition)

CCS(=O)(=O)c1cc(OC)cnc1-c1nc2cc(C(F)(F)F)ncc2n1C [Compound P13, 2-(3-ethylsulfonyl-5-methoxy-2-pyridyl)-3-methyl-6-(trifluoromethyl)imidazo[4,5-c]pyridine]
≥ 80%: percent effect (mortality or growth inhibition) at 200 ppm [1] | mortality at 200 ppm [2] | mortality at 24 ppm [3] | mortality at 200 ppm [4] | mortality at 200 ppm [5]

CCOC(=O)Oc1cnc(-c2nc3cc(C(F)(F)F)ncc3n2C)c(S(=O)(=O)CC)c1 [Compound P84, ethyl [5-ethylsulfonyl-6-[3-methyl-6-(trifluoromethyl)imidazo[4,5-c]pyridin-2-yl]-3-pyridyl] carbonate]
≥ 80%: mortality at 200 ppm [4]

CCS(=O)(=O)c1cc(OS(=O)(=O)C(F)(F)F)cnc1-c1nc2cc(C(F)(F)F)ncc2n1C [Compound P92, [5-ethylsulfonyl-6-[3-methyl-6-(trifluoromethyl)imidazo[4,5-c]pyridin-2-yl]-3-pyridyl] trifluoromethanesulfonate]
≥ 80%: mortality at 200 ppm [4]

CCS(=O)(=O)c1cc(OC(C)C)ccc1-c1nc2cc(C(F)(F)F)ncc2n1C [Compound P108, 2-(2-ethylsulfonyl-4-isopropoxy-phenyl)-3-methyl-6-(trifluoromethyl)imidazo[4,5-c]pyridine]
≥ 80%: percent effect (mortality or growth inhibition) at 200 ppm [1] | mortality at 200 ppm [2] | percent effect (mortality or growth inhibition) at 200 ppm [6] | mortality at 200 ppm [4] | mortality at 200 ppm [5]

CCSc1cc(OC(C)C)cnc1-c1nc2cc(C(F)(F)F)ncc2n1C [Compound P27, 2-(3-ethylsulfanyl-5-isopropoxy-2-pyridyl)-3-methyl-6-(trifluoromethyl)imidazo[4,5-c]pyridine]
≥ 80%: percent effect (mortality or growth inhibition) at 200 ppm [1] | mortality at 200 ppm [2] | mortality at 200 ppm [4] | mortality at 200 ppm [5]

CCS(=O)(=O)c1cc(OC2COC2)cnc1-c1nc2cc(C(F)(F)F)ncc2n1C [Compound P1, 2-[3-ethylsulfonyl-5-(oxetan-3-yloxy)-2-pyridyl]-3-methyl-6-(trifluoromethyl)imidazo[4,5-c]pyridine]
≥ 80%: percent effect (mortality or growth inhibition) at 200 ppm [1] | mortality at 200 ppm [2] | mortality at 24 ppm [3] | percent effect (mortality or growth inhibition) at 200 ppm [6] | mortality at 200 ppm [5]

CCS(=O)(=O)c1cc(OCC2CCC2)cnc1-c1nc2cc(C(F)(F)F)ncc2n1C [Compound P69, 2-[5-(cyclobutylmethoxy)-3-ethylsulfonyl-2-pyridyl]-3-methyl-6-(trifluoromethyl)imidazo[4,5-c]pyridine]
≥ 80%: mortality at 200 ppm [2] | percent effect (mortality or growth inhibition) at 200 ppm [6] | mortality at 200 ppm [4] | mortality at 200 ppm [5]

CCSc1cc(OC(C)C)cnc1-c1nc2cc(SC(F)(F)F)ncc2n1C [Compound P74, 2-(3-ethylsulfanyl-5-isopropoxy-2-pyridyl)-3-methyl-6-(trifluoromethylsulfanyl)imidazo[4,5-c]pyridine]
≥ 80%: percent effect (mortality or growth inhibition) at 200 ppm [1] | mortality at 200 ppm [2] | percent effect (mortality or growth inhibition) at 200 ppm [6] | mortality at 200 ppm [4] | mortality at 200 ppm [5]

CCS(=O)(=O)c1cc(OC(C)(C)CS(C)(=O)=O)cnc1-c1nc2cc(C(F)(F)F)ncc2n1C [Compound P49, 2-[5-(1,1-dimethyl-2-methylsulfonyl-ethoxy)-3-ethylsulfonyl-2-pyridyl]-3-methyl-6-(trifluoromethyl)imidazo[4,5-c]pyridine]
≥ 80%: percent effect (mortality or growth inhibition) at 200 ppm [1] | mortality at 200 ppm [2] | mortality at 24 ppm [3] | percent effect (mortality or growth inhibition) at 200 ppm [6]

CCS(=O)(=O)c1cc(O/N=C(\C)c2cc(F)cc(F)c2)cnc1-c1nc2cc(C(F)(F)F)ncc2n1C [Compound P96, (E)-1-(3,5-difluorophenyl)-N-[[5-ethylsulfonyl-6-[3-methyl-6-(trifluoromethyl)imidazo[4,5-c]pyridin-2-yl]-3-pyridyl]oxy]ethanimine]
≥ 80%: percent effect (mortality or growth inhibition) at 200 ppm [1] | percent effect (mortality or growth inhibition) at 200 ppm [6] | mortality at 200 ppm [4] | mortality at 200 ppm [5]

C#CC(C)(C)Oc1cnc(-c2nc3cc(C(F)(F)F)ncc3n2C)c(SCC)c1 [Compound P82, 2-[5-(1,1-dimethylprop-2-ynoxy)-3-ethylsulfanyl-2-pyridyl]-3-methyl-6-(trifluoromethyl)imidazo[4,5-c]pyridine]
≥ 80%: percent effect (mortality or growth inhibition) at 200 ppm [6] | mortality at 200 ppm [4] | mortality at 200 ppm [5]

CCS(=O)(=O)c1cc(OCC(C)=O)cnc1-c1nc2cc(C(F)(F)F)ncc2n1C [Compound P65, 1-[[5-ethylsulfonyl-6-[3-methyl-6-(trifluoromethyl)imidazo[4,5-c]pyridin-2-yl]-3-pyridyl]oxy]propan-2-one]
≥ 80%: percent effect (mortality or growth inhibition) at 200 ppm [1] | mortality at 200 ppm [2] | mortality at 24 ppm [3] | percent effect (mortality or growth inhibition) at 200 ppm [6] | mortality at 200 ppm [5]

CCS(=O)(=O)c1cc(OC(F)(F)C(=O)N(C)C)cnc1-c1nc2cc(C(F)(F)F)ncc2n1C [Compound P6, 2-[[5-ethylsulfonyl-6-[3-methyl-6-(trifluoromethyl)imidazo[4,5-c]pyridin-2-yl]-3-pyridyl]oxy]-2,2-difluoro-N,N-dimethyl-acetamide]
≥ 80%: percent effect (mortality or growth inhibition) at 200 ppm [1] | mortality at 200 ppm [2] | mortality at 24 ppm [3] | percent effect (mortality or growth inhibition) at 200 ppm [6] | mortality at 200 ppm [5]

CCS(=O)(=O)c1cc(O[C@H]2C[C@H](OC)C2)cnc1-c1nc2cc(C(F)(F)F)ncc2n1C [Compound P45, 2-[3-ethylsulfonyl-5-(3-methoxycyclobutoxy)-2-pyridyl]-3-methyl-6-(trifluoromethyl)imidazo[4,5-c]pyridine]
≥ 80%: percent effect (mortality or growth inhibition) at 200 ppm [1] | mortality at 200 ppm [2] | mortality at 24 ppm [3] | percent effect (mortality or growth inhibition) at 200 ppm [6] | mortality at 200 ppm [4]

CCS(=O)(=O)c1cc(OCCS(C)(=O)=O)ccc1-c1nc2cc(C(F)(F)F)ncc2n1C [Compound P102, 2-[2-ethylsulfonyl-4-(2-methylsulfonylethoxy)phenyl]-3-methyl-6-(trifluoromethyl)imidazo[4,5-c]pyridine]
≥ 80%: mortality at 200 ppm [2] | mortality at 24 ppm [3] | percent effect (mortality or growth inhibition) at 200 ppm [6]

CCSc1cc(OCC(F)F)cnc1-c1nc2cc(C(F)(F)F)ncc2n1C [Compound P81, 2-[5-(2,2-difluoroethoxy)-3-ethylsulfanyl-2-pyridyl]-3-methyl-6-(trifluoromethyl)imidazo[4,5-c]pyridine]
≥ 80%: percent effect (mortality or growth inhibition) at 200 ppm [1] | mortality at 24 ppm [3] | percent effect (mortality or growth inhibition) at 200 ppm [6] | mortality at 200 ppm [4] | mortality at 200 ppm [5]

CCS(=O)(=O)c1cc(OC(C)(C)COC)cnc1-c1nc2cc(C(F)(F)F)ncc2n1C [Compound P48, 2-[3-ethylsulfonyl-5-(2-methoxy-1,1-dimethyl-ethoxy)-2-pyridyl]-3-methyl-6-(trifluoromethyl)imidazo[4,5-c]pyridine]
≥ 80%: percent effect (mortality or growth inhibition) at 200 ppm [1] | mortality at 200 ppm [2] | mortality at 24 ppm [3]

CCS(=O)(=O)c1cc(OC2(C)COC2)cnc1-c1nc2cc(C(F)(F)F)ncc2n1C [Compound P4, 2-[3-ethylsulfonyl-5-(3-methyloxetan-3-yl)oxy-2-pyridyl]-3-methyl-6-(trifluoromethyl)imidazo[4,5-c]pyridine]
≥ 80%: percent effect (mortality or growth inhibition) at 200 ppm [1] | mortality at 200 ppm [2] | mortality at 24 ppm [3] | percent effect (mortality or growth inhibition) at 200 ppm [6] | mortality at 200 ppm [5]

CCS(=O)(=O)c1cc(OC(F)(F)F)cnc1-c1nc2cc(C(F)(F)F)ncc2n1C [Compound P98, 2-[3-ethylsulfonyl-5-(trifluoromethoxy)-2-pyridyl]-3-methyl-6-(trifluoromethyl)imidazo[4,5-c]pyridine]
≥ 80%: percent effect (mortality or growth inhibition) at 200 ppm [1] | percent effect (mortality or growth inhibition) at 200 ppm [6] | mortality at 200 ppm [4] | mortality at 200 ppm [5]

CCS(=O)(=O)c1cc(OCCS(C)(=O)=O)cnc1-c1nc2cc(C(F)(F)F)ncc2n1C [Compound P7, 2-[3-ethylsulfonyl-5-(2-methylsulfonylethoxy)-2-pyridyl]-3-methyl-6-(trifluoromethyl)imidazo[4,5-c]pyridine]
≥ 80%: mortality at 200 ppm [2] | mortality at 24 ppm [3] | percent effect (mortality or growth inhibition) at 200 ppm [6]

CCSc1cc(OC(C)C)cnc1-c1nc2cc(S(=O)(=O)C(F)(F)F)ncc2n1C [Compound P73, 2-(3-ethylsulfanyl-5-isopropoxy-2-pyridyl)-3-methyl-6-(trifluoromethylsulfonyl)imidazo[4,5-c]pyridine]
≥ 80%: percent effect (mortality or growth inhibition) at 200 ppm [1] | mortality at 200 ppm [2] | percent effect (mortality or growth inhibition) at 200 ppm [6] | mortality at 200 ppm [4] | mortality at 200 ppm [5]

CCS(=O)(=O)c1cc(OCC2(C)COC2)cnc1-c1nc2cc(C(F)(F)F)ncc2n1C [Compound P54, 2-[3-ethylsulfonyl-5-[(3-methyloxetan-3-yl)methoxy]-2-pyridyl]-3-methyl-6-(trifluoromethyl)imidazo[4,5-c]pyridine]
≥ 80%: mortality at 200 ppm [2] | mortality at 24 ppm [3] | percent effect (mortality or growth inhibition) at 200 ppm [6]
